Reference: publication PMC9738927, “A Newly Identified Monoterpenoid-Based Small Molecule Able to Support the Survival of Primary Cultured Dopamine Neurons and Alleviate MPTP-Induced Toxicity In Vivo” (Molecules, 2022)
“And” between values parts separate entries of the source, which are not always exact repeats. Equal values may be shown once.

Columns and labels:
[1] = tested on: naïve primary midbrain dopamine neurons; experiment: Survival of naïve cultured dopamine neurons (TH-positive cell count); type: cell-based, mouse
Method: (§1) We developed a compound library containing 20 diol derivatives and screened them on cultured primary DA neurons (Supplementary Materials, Table S1). Compounds were taken at a dose of 0.1 and 1 μM (based on effective doses for the epoxydiol). Based on the screening results, we selected four compounds and tested them in a naïve and MPP^+-treated (1-methyl-4-phenylpyridinium (MPP^+), the neurotoxic metabolite of MPTP) DA culture at 1, 10, and 100 nM to select the compound with the lowest effective dose.
(§2) The survival of cultured mouse DA neurons was assessed as described before. Briefly, naïve or MPP^+ (dopaminergic selective neurotoxin)-challenged embryonic midbrain neurons were cultured in the presence or absence of a diol-like compound. The number of survived DA neurons was estimated after immunocytochemical staining with antibodies recognizing the key enzyme of dopamine synthesis—tyrosine hydroxylase.

CD-1 female mice = experiment: Maximum tolerated dose and LD50 (acute oral toxicity); type: in vivo
Method: (§3) Healthy animals were randomly divided into groups of four males or four females each. After a 3–4 h starvation, animals were administered 100, 150, 200, or 500 mg/kg PA96 solution (prepared by dissolution in saline containing 0.5% Tween 80) or the vehicle […]. Food was provided for approximately 1–2 h after administration. All mice were continuously monitored for changes in weight, breathing, ptosis, gait disturbance, tremor, and mortality 1 h after administration of PA96 and every 6 h after that. The day of dosing was designated as day 0, and animals were observed until day 14. Each mouse was weighed on days 0, 1, 3, 7, and 14.
(§4) The arithmetic method of Kerber was used to determine the lethal dose fifty (LD50) that killed 50% of studied animals with PA96.
(§5) The LD50 value was determined according to the following equation [24]:LD50 = LD100 − ∑ (z × d)/m(1) where LD50—dose capable of killing 50% of animals; LD100—dose capable of killing 100% of animals; z—half the sum of the number of animals in the experiments with the test of two following doses; d—the difference between two successive doses of administrative PA96; m—total number of animals in each group.

[2] = as above; type: in vivo; conditions: female, CD-1, mouse, in vivo, po
Method: as §3, §4, §5

[3] = tested on: MPP^+-treated primary midbrain dopamine neurons; experiment: Survival of MPP+-challenged cultured dopamine neurons (TH-positive cell count); type: cell-based, mouse
Method: as §1, §2

[4] = Pharmacokinetics in whole blood after a single oral dose (HPLC-MS/MS); type: in vivo, CD1 IGS mice; conditions: single oral 10 mg/kg
Method: Six CD1 IGS mice were administered orally with the compound PA96 in Tween 80 at doses of 10 mg/kg. Blood was collected from the tail after the amputation of a small distal piece. Time points were 5, 10, 30, 60, and 120 min after injection. Experimental blood samples were transferred into tubes for the precipitation of blood proteins with a mixture of zinc sulfate and methanol (2:8, v/v). A set of calibrators were prepared in advance, followed by their preparation protocol, and analyzed by HPLC-MS/MS for standard comparison. The calibration curve was built in the range of 25–2000 ng/mL. According to the signal-concentration profile, the content of PA96 in the experimental blood samples at each time point was calculated.
The stock solution of PA96 (1.0 mg/mL) was prepared by dissolving an accurately weighed amount of the substance in 100% methanol. To obtain a set of working solutions with concentrations of 0.01, 0.05, 0.1, 0.25, 0.5, 1, 2.5, 5, 7.5, 10, 15, and 20 µg/mL, the stock solution of PA96 was diluted with methanol. Calibration standards (calibrators) were prepared by mixing 10 μL of each individual working solution and 90 μL of mouse whole blood. Samples were stirred gently on an orbital shaker at 1000 rpm and left at 4 °C for 1 h for equilibration. The stock solution of IS with a concentration of 1.0 mg/mL was prepared by dissolving a weighed amount of 2-adamantylamine hydrochloride in pure methanol. The solution for the protein precipitation procedure was a mixture of 2 parts of 0.2 M aqueous solutions of zinc sulfate per 8 parts of a solution of IS in methanol with a concentration of 10 µg/mL. All solutions were stored at −18 °C and brought to their ambient temperature before use.
An aliquot of 10 µL of each whole blood sample was placed into an Eppendorf microtube (1.5 mL), then the precipitation solution of 50 µL was added to each tube. All samples were vortexed for 20–30 s and then centrifuged (Eppendorf MiniSpin, Eppendorf, Germany) for 10 min at 13,400 rpm. The supernatant was transferred into a chromatographic vial and analyzed.
The LC-MS/MS analysis was performed using an LC-20AD Prominence chromatograph equipped with an autosampler thermostated at +10 °C (Shimadzu, Japan) and a 3200 QTRAP mass spectrometer equipped with an ESI source (AB SCIEX, USA). Separation was achieved on a ProntoSil-120-5-C18 AQ column (2.0 × 75 mm, 5 μm particles, (EcoNova, Novosibirsk, Russia)) thermostated at +35 °C. The mobile phase was composed of water containing 0.1% formic acid (eluent A) and methanol containing 0.1% formic acid (eluent B). The gradient elution program was as follows: 0 min-10% (B); 0.5 min-10% (B); 7 min-98% (B); 9 min-98% (B); the flow rate was 200 μL/min.
The mass spectrometer was operated using multiple reaction monitoring (MRM) in positive ion mode. Ionization was conducted by applying a voltage of 5500 V, and the source temperature was set at +350 °C. For the analyte and IS, the optimized source parameters, viz. CUR (curtain gas), GS1 (Gas 1), and GS2 (Gas 2) were set at 20 psi. The CAD (collisionally activated dissociation) gas was nitrogen, and the parameter was set as high. The parameters of PA96, viz. MRM transitions, declustering potentials (DP), collision energies (CE), and collision cell exit potentials (CXP) are presented in Table 3. The dwell time was 100 msec. Analyst 1.6.2 software (AB SCIEX, USA) was used for instrument control and data acquisition, and MultiQuant 2.1 software (AB SCIEX, USA) was used for quantification. To calculate the main pharmacokinetic parameters, the Microsoft Excel–PKSolver was used.

[5] = CD1 IGS, mouse, whole blood, blood

With `C=C(C)[C@@H]1CC=C(C)[C@@H](Sc2nc[nH]n2)[C@@H]1O` [PA96, (1R,2R,6S)-2-(1H-1,2,4-triazol-3-ylthio)-3-methyl-6-(prop-1-en-2-yl)cyclohex-3-enol] the “potency relative to epoxydiol in the survival assay” value ([1]; PA96 vs epoxydiol) was “up to 100 times”, the “effective concentration in survival assay for DA neurons” value ([1]; cultured DA neurons) was 1 nM and 1−10 nM and the “cytotoxicity in in vitro experiments” value ([1]; naive neurons and with MPP+) was “neither cytotoxic effect in naive neurons nor increased cytotoxicity”. For the same compound, the “number of TH-positive neurons greater than in vehicle-treated wells” value ([1]; naïve neurons, 1 nM, p = 0.04) was 40%, the “MTD relative to the effective dose” value (CD-1 female mice; female, CD-1, mouse, in vivo, 14 days) was 100 fold and the “dose at which abnormal clinical signs were observed (piloerection, decreased motor activity, ptosis, gait disturbance)” value (CD-1 female mice; female, CD-1, mouse, in vivo, po, 14 days) was ≥ 150 mg/kg. The hazard category (CD-1 female mice; mouse, in vivo) was “Category III (slightly hazardous)”, the “therapeutic dose lower than LD50” value (CD-1 female mice; therapeutic dose vs LD50) was “at least 100 times” and the LD50 at 14 days [2] was 234 mg/kg. For the same compound, the MTD at 14 days [2] was 100 mg/kg, the “number of TH-positive neurons relative to VEH-treated wells” value ([3]; MPP+ and 1 nM, p = 0.03) was 2.4 fold and the inhibition at 0.1 µM ([3]; Mus musculus, Neuron, 100 nM, compared to VEH-treated wells, read-out: Support effect / inhibition, MPP+-treated dopamine neurons, 100 nM) was 0%. For the same compound, the half-life ([4]; CD1 IGS, mouse, whole blood, po, 10 mg/kg, blood) was ~24 min, the AUC0-t [4, 5] was 278 ng·h/mL and the Cmax [4, 5] was 550 ng/mL. The Tmax [4, 5] was 5 min, the AUC(0-inf) ([4]; CD1 IGS, mouse, whole blood, blood, read-out: AUC0-inf_obs) was 290 ng·h/mL and the MRT inf ([4]; CD1 IGS, mouse, whole blood, blood, read-out: MRT0-inf_obs (converted)) was 29.7 min. The Cl/F_obs ([4]; blood) was “(5.8 ± 0.6) × 10^−4 (mg/kg)/(ng/mL)/min”, the Vz/F_obs ([4]; blood) was “(18.9 ± 0.6) × 10^−3 (ml/kg)/(ng/mL)” and the “time at which the minimum detectable concentration in blood was observed” value [4] was 1 h.
